Laboratory results taken from article PMC4766415 (Nature Communications, 2016).

What was measured:
[1] = tested on: Rat Schwannoma cells (RN22); assay: Caspase-3 activation by Y78F-TTR oligomers in RN22 cells; conditions: Y78F-TTR aggregates 2 μM formed with 20 μM compound; 24 h exposure
[2] = cited from earlier work
AC16 cells = assay: TTR-induced cytotoxicity in AC16 cells, resazurin reduction assay; assay type: cell-based, human; conditions: 16 μM compound, 8 μM TTR; 24 h
Description: Error bars indicate s.e.m. […] Error bars indicate s.e.m. (n=4). […] Error bars indicate s.e.m. (n=3).

WT-TTR [3] = target: T1, WT-TTR (Homo sapiens, UniProt P02766); assay: TTR stabilization in urea, Trp fluorescence; assay type: biochemical; set-up: made in house; host or cells: Escherichia coli BL21(DE3), pET expression system; conditions: 72 h; for WT-tetramer unfolded: WT-TTR 1.8 μM, 6.5 M urea, RT
Method: In urea, TTR tetramer dissociation precedes monomer unfolding, a process easily tracked by monitoring changes in intrinsic Trp fluorescence.
At high denaturant concentrations, the rate of TTR tetramer dissociation is linked irreversibly to monomer unfolding. […] Intrinsic fluorescence was recorded after 72 h.
Urea was added to attain a range of final concentrations (0–9 M) and the samples were incubated for 72 h at RT. Fluorescence intensity measurements were performed on a Jasco FP-8200 Spectrofluorometer. Trp fluorescence was obtained by exciting the samples at 280 nm and emission was collected from 300 to 400 nm. The fluorescence intensity ratio 355/335 nm was plotted against urea concentration as a sensor of folded protein, which for TTR in urea is equivalent to tetramer integrity. […] The fraction of unfolded TTR was measured and calculated as above. The TTR fluorescence after incubation at RT for 72 h in 9 M urea was considered to correspond to that of the unfolded state.

[4] = tested on: T2, TTR in human plasma (WT-TTR and V30M-TTR); assay: [125I]T4 competition in human plasma, native gel electrophoresis; assay type: binding; conditions: 1 mM; plasma from normal (WT-TTR) and V30M-TTR FAP patient; 1 h RT
T2 construct: human plasma from a normal (WT-TTR) and from an FAP patient carrying the V30M-TTR mutation; from tissue; host or cells: human plasma of normal donors and of V30M-TTR carriers
Description: Error bars indicate s.e.m. (n=3). […] Error bars indicate s.e.m. (n=3).

WT-TTR [5] = target: T1, WT-TTR; assay: Isothermal titration calorimetry, WT-TTR
[6] = tested on: WT and V30M-TTR tetramers in plasma; assay: TTR tetramer stability in human plasma by IEF under semi-denaturing conditions; assay type: biochemical; conditions: 1.4 mM, overnight 4 °C, 4 M urea
Y78F-TTR = Y78F-TTR (Homo sapiens, UniProt P02766, Y98F); assay: Y78F-TTR aggregation inhibition, turbidity at 340 nm, pH 4.2
V122I-TTR = V122I-TTR (Homo sapiens, UniProt P02766, V142I); assay: Isothermal titration calorimetry, V122I-TTR
[7] = tested on: T3, tetrameric TTR in human plasma; assay: Ex vivo plasma TTR stability by immunoturbidity after urea denaturation; assay type: biochemical; conditions: 4.8 M urea, 48 h; pooled plasma of healthy volunteers
T3 construct: Plasma TTR was then immunoprecipitated; from tissue; host or cells: human plasma
Description: Stabilization of plasma TTR under physiological conditions was confirmed using an immunoturbidity assay[29] (Fig. 4c). […] After urea treatment, samples were crosslinked with glutaraldehyde and the concentration of TTR determined by immunoturbidity. Treatment with urea and glutaraldehyde decreases immunoturbidity signal due to the extensive modification of denatured TTR monomers by glutaraldehyde, hampering antibody recognition. As TTR denaturation is preceded by tetramer dissociation, the signal roughly correlates with tetramer stability.
A pool of lithium-heparin plasma samples from healthy volunteers stored at −80 °C was thawed on ice. Partially clotted particles were removed by spinning the samples for 2 min at 10,000g. […] Addition volume was limited to maximum 1.5% (v/v) of sample. A control in which DMSO vehicle was added was included in the experimental design. Samples were then mixed with a urea solution (8 M in 50 mM potassium phosphate pH 7.0, 100 mM NaCl, 1 mM dithiothreitol, 1 mM EDTA) to a final urea concentration of 4.8 M, and incubated for various time points at controlled RT conditions. […] Samples were transferred to a measuring tube and read by immunoturbidity after 5 min at RT. Immunoturbidity was measured in a Siemens Automate Dimension EXL200 instrument, using the Siemens Prealbumin (PALB) reagent and calibrator according to the manufacturer's instructions. […]

A25T-TTR = tested on: T4, A25T-TTR; assay: A25T-TTR sedimentation assay (total protein precipitation); assay type: biochemical, human; conditions: four molar equivalents (15 μM); pH 5.0, 37 °C, 22 h
T4 construct: TTR is composed of four identical 127 amino-acid residue β-sheet-rich subunits; made in house; host or cells: Escherichia coli BL21(DE3), pET expression system
Method: TTR aggregation can also be measured by sedimentation using centrifugation. […] TTR aggregation induction was performed as described above. […] The supernatant was carefully removed, and 400 μl of Guanidine (8 M) was added to each sample and subsequently incubated for 1 h to unfold the aggregated TTR. The amount of resolubilized TTR was measured by absorbance at 280 nm. The percentage of TTR precipitated was calculated with respect to total (soluble) TTR at time 0. […]
aggregation as measured by total protein precipitation. […]
aggregation conditions (pH 4.4 and 37°C) for 72 hours. The samples were then centrifuged at 20,000 x g for 1 h at 4 °C and the supernatants (soluble protein) were carefully removed. The precipitated TTR from each sample was resolubilized by addition of 8 M guanidine solution followed by 1 h incubation at RT. TTR concentration was measured by spectroscopy at 280 nm and total amount of resolubilized TTR was calculated. The data is presented as % insoluble […]
was performed for A25T-TTR at pH 5.0 and 37°C for 22 hours . […]

[8] = no reference given; cited from earlier work
[9] = general model, two ligand-binding sites
[10] = two identical and independent binding sites

For `Cc1ccc(C(=O)c2cc(O)c(O)c([N+](=O)[O-])c2)cc1` [tolcapone], the “reduction in Caspase-3 activation” value [1] is given as 27.8%±6.1, the “blood–brain barrier crossing” value [2] is given as “able to cross the blood–brain barrier” and the “effect on WT-TTR and V122I-TTR induced reduction in cell viability” value (AC16 cells) is given as “rescued this toxic effect”. For the same compound, the WT-tetramer unfolded (WT-TTR [3]; 2 molar equivalents) was 33.8%, the WT-tetramer unfolded (WT-TTR [3]; 4 molar equivalents) was 8% and the “TTR remaining in the native state” value (WT-TTR [3]; 10 molar equivalents, 8 M urea) was “more than 80%”. The “radioactive T4-TTR band in the presence of compound” value [4] was “no longer visible”, the TΔs1 binding entropy (WT-TTR [5]; first ligand) was 1.8 kcal/mol and the “Δh1 site-specific binding enthalpy” value (WT-TTR [5]; first ligand) was -8.7 kcal/mol. The “ΔH1 overall binding enthalpy” value (WT-TTR [5]; [9]) was -8.7 kcal/mol, the “ΔH2 overall binding enthalpy” value (WT-TTR [5]; [9]) was -18.4 kcal/mol and the “β2 overall association constant” value (WT-TTR [5]; [9]) was 7.9 × 10^14 M^−2. For the same compound, the TΔs2 binding entropy (WT-TTR [5]; second ligand) was 0.2 kcal/mol, the “Δh2 site-specific binding enthalpy” value (WT-TTR [5]; second ligand) was -9.7 kcal/mol and the “TTR tetramer stabilization in plasma” value [6] was “stabilized WT and V30M-TTR tetramers in plasma”. For the same compound, the “RA (%): percent reduction of TTR aggregation rate at high inhibitor concentration” value (Y78F-TTR) was 89.13%, the TΔs binding entropy (V122I-TTR; called unfavourable) was 1.6 kcal/mol and the “Δh binding enthalpy per site” value (V122I-TTR; [10]) was -11.5 kcal/mol. The β1 association constant (V122I-TTR; [10]) was 1.8e+07 M⁻¹, the “stabilization of plasma TTR against urea denaturation” value [7] was “stabilized TTR in a dose-responsive manner” and the “reduction of A25T-TTR aggregation (sedimentation, Supplementary Fig. 1b)” value (A25T-TTR) was 50%. For the same compound, the half-life in plasma [8] was 2 to 3 h.
